Assay results published in the NIST ThermoML archive (doi:10.1016/j.jct.2008.09.014).
Values joined by “and” are separate entries in the source; they are usually repeats but may differ in a detail not shown here. Equal entries are not always repeated. Numbers after ± are expanded uncertainties.

Conditions: Crystal; for vapor or sublimation pressure: Calculated from knudsen effusion weight loss

O=[N+]([O-])c1ccc2[nH]ccc2c1 [5-nitroindole]
Conditions | vapor or sublimation pressure
353.15 K | 9.42e-05 ± 4.7e-06 kPa and 9.3e-05 ± 4.7e-06 kPa
355.2 K | 0.0001148 ± 5.8e-06 kPa and 0.0001117 ± 5.6e-06 kPa
357.18 K | 0.0001368 ± 6.9e-06 kPa and 0.0001345 ± 6.7e-06 kPa and 0.000131 ± 6.6e-06 kPa
359.15 K | 0.0001667 ± 8.4e-06 kPa and 0.0001723 ± 8.6e-06 kPa and 0.0001702 ± 8.5e-06 kPa
361.19 K | 0.0001997 ± 1e-05 kPa and 0.000201 ± 1e-05 kPa
363.17 K | 0.0002441 ± 1.2e-05 kPa and 0.0002364 ± 1.2e-05 kPa
365.16 K | 0.0003138 ± 1.6e-05 kPa and 0.0003041 ± 1.5e-05 kPa and 0.0002935 ± 1.5e-05 kPa
367.19 K | 0.0003798 ± 1.9e-05 kPa and 0.0003685 ± 1.8e-05 kPa and 0.0003544 ± 1.8e-05 kPa
369.17 K | 0.0004448 ± 2.2e-05 kPa and 0.000439 ± 2.2e-05 kPa and 0.0004322 ± 2.2e-05 kPa
371.17 K | 0.0005523 ± 2.8e-05 kPa and 0.0005458 ± 2.7e-05 kPa and 0.0005326 ± 2.7e-05 kPa
373.19 K | 0.0006817 ± 3.4e-05 kPa and 0.0006526 ± 3.3e-05 kPa and 0.0006311 ± 3.2e-05 kPa
375.17 K | 0.0008006 ± 4e-05 kPa and 0.0007692 ± 3.9e-05 kPa

O=[N+]([O-])c1ccc2c(c1)CCN2 [5-nitroindoline]
Conditions | mass density [kg/m3]
298.15 K, 101.33 kPa, mass and volume measurement | 1390 ± 20

Conditions | vapor or sublimation pressure
338.09 K | 6.24e-05 ± 3.1e-06 kPa and 6.06e-05 ± 3e-06 kPa and 6.3e-05 ± 3.2e-06 kPa
340.12 K | 7.74e-05 ± 3.9e-06 kPa and 7.36e-05 ± 3.7e-06 kPa and 7.65e-05 ± 3.8e-06 kPa
342.2 K | 0.000101 ± 5.1e-06 kPa and 9.69e-05 ± 4.9e-06 kPa and 9.36e-05 ± 4.7e-06 kPa
344.08 K | 0.0001236 ± 6.2e-06 kPa and 0.0001184 ± 5.9e-06 kPa and 0.0001211 ± 6.1e-06 kPa
346.1 K | 0.0001521 ± 7.6e-06 kPa and 0.0001453 ± 7.3e-06 kPa and 0.0001435 ± 7.2e-06 kPa
348.19 K | 0.0001876 ± 9.4e-06 kPa and 0.0001782 ± 8.9e-06 kPa and 0.0001803 ± 9e-06 kPa
350.1 K | 0.000241 ± 1.2e-05 kPa and 0.0002364 ± 1.2e-05 kPa and 0.0002307 ± 1.2e-05 kPa
352.13 K | 0.0002958 ± 1.5e-05 kPa and 0.0002905 ± 1.5e-05 kPa and 0.0002792 ± 1.4e-05 kPa
354.19 K | 0.0003738 ± 1.9e-05 kPa and 0.0003438 ± 1.7e-05 kPa and 0.0003465 ± 1.7e-05 kPa
356.1 K | 0.0004193 ± 2.1e-05 kPa and 0.0004189 ± 2.1e-05 kPa and 0.0004131 ± 2.1e-05 kPa
358.12 K | 0.0005196 ± 2.6e-05 kPa and 0.0005153 ± 2.6e-05 kPa and 0.0005004 ± 2.5e-05 kPa
360.18 K | 0.0006675 ± 3.3e-05 kPa and 0.0006261 ± 3.1e-05 kPa and 0.0006157 ± 3.1e-05 kPa
